What was measured:
PAOh1/SMO [1] = assay: PAOh1/SMO activity and mRNA in small-cell lung cancer lines NCI H82 and NCI H889 after BENSpm; format: cell-based, human; conditions: two small-cell lung cancer lines, 10 μM, 24 h
Description: Cell Culture and Analysis of Growth Inhibition of Human Lung Cancer Cell Lines The non-small-cell cancer lines NCI A549 (adenocarcinoma), NCI H157 (squamous), NCI H727 (carcinoid), NCI H125 (adenocarcinoma) and U1752 (squamous), and the small-cell lung carcinoma lines NCI H82 and NCI H889 were cultured as we have previously described. Cells were treated for the times and with the concentrations of specific agents as indicated in the Results. For cell growth analysis in the presence of the PAOh1/SMO inhibitor MDL 72,527, the MTS dye reduction assay CellTiter 96 system from Promega was used according to the supplier's protocol. […]
Total cellular RNA was extracted from the lung cancer cell lines using Trizol reagent (Invitrogen) according to the manufacturer's protocol. […] Intracellular polyamine concentrations were determined using the precolumn dansylation labeling, reverse-phase high-pressure liquid chromatography method as described by Kabra et al. using 1,7-diaminoheptane as an internal standard. Polyamine concentrations are reported as nanomoles per milligram protein for each sample, where lysate protein content was measured by the method of Bradford. SSAT activity of cellular extracts was measured as previously described. […]

NCI A549 cells [2] = assay: Intracellular polyamine and analogue content of NCI A549 cells (HPLC); format: cell-based, human; conditions: NCI A549, 10 μM, 24 h
Text: (§1) Total cellular RNA was extracted from the lung cancer cell lines using Trizol reagent (Invitrogen) according to the manufacturer's protocol. For Northern blotting, total RNA (20 lg) was separated on a denaturing 1.5% agarose gel containing 6% formaldehyde and transferred to Zetaprobe membrane (Bio-Rad). Random primer- labeled PAOh1 cDNA was used as probe to estimate PAOh1/SMO expression. Blots were stripped and reprobed with an 18S ribosomal cDNA to provide a loading control. Analysis of polyamine content, SSAT and PAOh1/SMO activity. Intracellular polyamine concentrations were determined using the precolumn dansylation labeling, reverse-phase high-pressure liquid chromatography method as described by Kabra et al. using 1,7-diaminoheptane as an internal standard. Polyamine concentrations are reported as nanomoles per milligram protein for each sample, where lysate protein content was measured by the method of Bradford. SSAT activity of cellular extracts was measured as previously described. […] The PAOh1/SMO assays were performed in the presence of 1.0 mM pargyline and 0.1 mM semicarbizide as inhibitors of monoamine oxidase (MAO) and diamine oxidase (DAO), respectively.

NCI A549 cells [3] = assay: MTS cell growth analysis of NCI A549 cells with or without MDL 72,527; format: cell-based, human; conditions: NCI A549, 96 h, 10 μM analogue with 250 μM MDL 72,527
Description: (§2) Cell Culture and Analysis of Growth Inhibition of Human Lung Cancer Cell Lines The non-small-cell cancer lines NCI A549 (adenocarcinoma), NCI H157 (squamous), NCI H727 (carcinoid), NCI H125 (adenocarcinoma) and U1752 (squamous), and the small-cell lung carcinoma lines NCI H82 and NCI H889 were cultured as we have previously described. Cells were treated for the times and with the concentrations of specific agents as indicated in the Results. For cell growth analysis in the presence of the PAOh1/SMO inhibitor MDL 72,527, the MTS dye reduction assay CellTiter 96 system from Promega was used according to the supplier's protocol. In these experiments, NCI A549 cells were seeded at 5×10^3 cells/well in a 96-well microtiter plate and treated for 96 h with 10 μM of the indicated analogue in the presence or absence of 250 μM MDL 72,527.

SSAT = SSAT activity of NCI A549 cellular extracts; format: cell-based, human; conditions: NCI A549, 10 μM, 24 h; untreated 5 ± 0.1
Text: as §1

PAO message = assay: Northern blot of PAO mRNA in NCI H157 cells after analogue treatment; format: cell-based, human; conditions: 10 μM, 24 h
Description: RNA Purification and Northern Blot Assay. Total cellular RNA from the NCI H157 cell line was extracted using Trizol total RNA reagent according to the protocol from the manufacturer. Total RNA (20 μg) was separated on a denaturing 1.5% agarose gel containing 6% formaldehyde, transferred to Zetaprobe membrane (Bio-Rad), and hybridized with a random primer-labeled pPAOh1 cDNA as the probe. Blots were washed and reprobed with an 18S ribosomal cDNA probe as a loading control.

PAOh1/SMO [4] = assay: PAOh1/SMO activity in lysates of NCI A549 cells after analogue treatment; format: cell-based, human
Description: as §2, §1

PAO = PAO activity in homogenates of NCI H157 cells after analogue treatment; format: cell-based, human; conditions: 10 μM, 24 h
Description: Determination of PAO Enzyme Activity. The cultured H157 cells with or without treatment of 10 μM N^1, N″-bis(ethyl)norspermine (BENSpm) were homogenized with a Dounce tissue homogenizer in ice-cold 0.083 M sodium borate buffer (pH 9.0). The PAO activity in homogenates was assayed by the method of Suzuki et al. […] The enzyme activity was stopped by the addition of 2.0 ml of 0.1 M NaOH solution. The fluorescence intensity was measured with excitation at 323 nm and emission at 426 nm. […] Protein content of the cellular homogenate was determined using the Bio-Rad protein assay kit (Bio-Rad). […] For determination of PAO activity in the product of the unlabeled TnT reaction, 10 μl of TnT reaction were used in the place of the homogenate. The PAO activity in the TnT reactions was represented by the fluorescent compound formed within the 1-h incubation. […] The concentrations chosen for each inhibitor were based on studies published previously (12).

[5] = molecular target: T1, purified recombinant human PAOh1/SMO (Homo sapiens, UniProt Q9NWM0); assay: Oxidase activity of purified recombinant PAOh1/SMO, luminol chemiluminescence; format: biochemical; conditions: 250 μM of compound
T1 construct: A 1702 bp fragment of the PAOh1cDNA was produced by PCR; His tag (pET15b) (N); made in house; host or cells: Escherichia coli BL21(DE3)
Description: Expression and Purification of PAOh1/SMO. The pET15b/PAOh1/SMO plasmid was used to transform the BL21(DE3) strain of Escherichia coli (Novagen) and transformed cells were selected on LB agar with 50 μg/ml ampicillin. The expression of PAOh1/SMO protein was induced in LB medium by the addition of 1 mM IPTG for 3 h at 37 ° C. Cell lysates were prepared under denaturing conditions with 8M urea and PAOh1/SMO protein was purified from the lysate by Ni-NTA resin according to the manufacturer's protocol (Qiagen, Valencia, Calif.). The resulting denatured protein was renatured in buffers containing decreasing concentrations of urea (5M urea, 4 h; 2.5M urea, 4 h; 1M urea, 12 h; and 0M urea, 12 h) and 50 mM Tris-HCl, pH 7.5, 250 mM NaCl, 0.1 mM EDTA, 1 mM DTT, and 0.2 μM flavin adenine dinucleotide (FAD).
Determination of PAO enzyme activity. PAO activity of the purified PAOh1/SMO was assayed using a modi.cation of the chemiluminesence analysis reported by Fernandez et al. and Rogers, et al.. Briefly, luminol-dependent chemiluminescence was determined using a Monolight 3010 luminometer with two reagent injectors. Luminol was prepared as a 100 mM stock solution in DMSO and diluted to 100 μM with H2O, immediately prior to use. Purified PAOh1/SMO was assayed in a 100 mM glycine buffer, pH 8.0, 5 ηmol luminol, 20 μg horseradish peroxidase, and the polyamine substrate as indicated. All reagents with the exception of the polyamine substrate were combined and incubated for 2 min at 37 ° C., then the tube was transferred to the luminometer, substrate was added, and the resulting chemiluminescence was integrated over 20 s. The integral values are calibrated against standards containing known concentrations of H2O2 and the activities are expressed as pmols H2O2/mg protein/min. Where indicated, inhibitors were added at the specified concentrations prior to the addition of substrate. Km and Vmax values for the purified enzyme with the indicated substrate were estimated using Lineweaver-Burk transformation of the Michaelis-Menten kinetic equation.

T1 sequence (Q9NWM0 whole entry, the tested form may be a part): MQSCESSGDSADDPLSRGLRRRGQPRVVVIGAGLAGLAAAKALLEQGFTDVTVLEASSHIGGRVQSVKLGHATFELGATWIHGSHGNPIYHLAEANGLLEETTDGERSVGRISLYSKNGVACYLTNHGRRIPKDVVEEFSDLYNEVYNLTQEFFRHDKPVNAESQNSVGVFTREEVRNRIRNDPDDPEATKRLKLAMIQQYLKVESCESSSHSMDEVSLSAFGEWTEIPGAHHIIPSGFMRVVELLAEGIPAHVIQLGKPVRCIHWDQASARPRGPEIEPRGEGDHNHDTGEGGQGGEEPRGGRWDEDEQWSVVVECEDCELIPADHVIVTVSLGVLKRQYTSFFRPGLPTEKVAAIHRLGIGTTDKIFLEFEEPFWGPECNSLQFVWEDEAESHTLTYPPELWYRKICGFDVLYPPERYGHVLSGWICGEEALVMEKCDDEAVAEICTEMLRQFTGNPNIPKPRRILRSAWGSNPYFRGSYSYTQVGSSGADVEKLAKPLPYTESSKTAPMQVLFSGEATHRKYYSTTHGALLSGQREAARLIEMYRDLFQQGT

CCNCCCNCCCNCCCNCC [BENSpm, N^1,N^11-bis(ethyl)norspermine] was tested, and the “increase in PAOh1/SMO activity” value (PAOh1/SMO [1]) was “no observed increase”, the “increase in PAOh1/SMO mRNA” value (PAOh1/SMO [1]) was “no observed increase” and the “Polyamine: Putrescine” value (NCI A549 cells [2]; untreated 2.1 ± 0.7) was under 0.05 nmol/mg protein. For the same compound, the “Polyamine: Spermine” value (NCI A549 cells [2]; untreated 9.9 ± 1.2) was 1.2 ± 0.3 nmol/mg protein, the “Polyamine: Spermidine” value (NCI A549 cells [2]; untreated 26.9 ± 1.2) was 1.2 ± 0.8 nmol/mg protein and the “sensitivity of cell growth to analogue in the presence of the PAOh1/SMO inhibitor” value (NCI A549 cells [3]) was “clear decrease in sensitivity”. The SSAT activity (SSAT) was 5590 ± 517.7 pmol N^1-acetylspermidine/mg p, the “increase in PAO message” value (PAO message) was about 5 fold and the “fold increase of PAOh1/SMO activity” value (PAOh1/SMO [4]; NCI A549, 10 μM, 12 h) was “approximately threefold”. For the same compound, the “fold induction of PAOh1/SMO activity” value (PAOh1/SMO [4]; NCI A549, 10 μM, 24 h, 250 μM spermine as substrate) was “about fivefold”, the PAOh1/SMO activity (PAOh1/SMO [4]; NCI A549, 10 μM, 24 h, untreated 6,390 ± 2,070) was 16,100 ± 780 pmol H2O2/mg/h and the “induction of PAOh1/SMO activity” value (PAOh1/SMO [4]; NCI A549, 24 h exposure to 10 μM of each analogue) was “significant induction”. For the same compound, the “concentration of maximal induction of PAOh1/SMO” value (PAOh1/SMO [4]; NCI A549, increasing concentrations, 24 h) was 5 µM, the “increase in PAO activity” value (PAO) was over 3 fold and the “ability to serve as substrate (oxidation by purified PAOh1/SMO)” value [5] was “none of the analogues examined were found to be oxidized”.

— patent US20040229241A1, “Cloned mammalian polyamine oxidase” (priority 2001, published 2004)
